Test results as given in patent US8652514B2, “Antimicrobial peptides” (priority 2009, dated 2014).
Where a SMILES comes first, the peptide text is derived from it. Bridges are numbered along the chain shown (N, C = ends). [ ]: non-standard residue; d: D form. Phe(ol) = N[C@H](CO)Cc1ccccc1; Aib = CC(C)(N)C(=O)O

Experiments:
[1] = Pore-forming activity: dissipation of a membrane potential in azolectin liposomes
Experimental: The minimal inhibitory concentration (MIC) was determined according to the method of Hancock (Hancock, R. E. W. Sep. 19, 1999, posting date. [Online.] Hancock Laboratory Methods. Department of Microbiology and Immunology, University of British Columbia, British Columbia, Canada. [Antibiotics and Antimicrobial Peptides: MIC Determination by Microtitre Broth Dilution Method, last accessed September 21st.]). Permeabilization of bacterial membranes and pore-forming activity were assayed as previously described (Herbst, R., Ott, C., Jacobs, T., Marti, T., Marciano-Cabral, F., Leippe, M. Pore-forming polypeptides of the pathogenic protozoon Naegleria fowleri. J. Biol. Chem. 2002. 277:22353-22360).
To investigate the mode of action of Alvinellacine, we used the fluorescent dye SYTOX-Green® and either the Gram-positive Bacillus megaterium or the Gram-negative E. coli (FIG. 3). […] We also measured the pore-forming activity of Alvinellacine to further characterize its mode of action by using a minimalistic membrane system. More precisely, we monitored the dissipation of a membrane potential induced in liposomes composed of azolectin, a crude phospho lipid mixture from soy bean. Pore-forming activity was detected at final concentrations up to 0.5 nM, whereas the positive control Alamethicine gave a signal at 0.1 nM.

[2] = Permeabilization of liposomes filled with a fluorescent reagent; details: positive control Alamethicin
Experimental: FIG. 2 presents the ability of the Alvinellacine to create pores in liposomes, herein used to mimic bacterial membranes.
The mechanism of antibacterial activity was determined using liposomes filled with a fluorescent reagent. Liposomes consist of a bi-layer of phospholipids herein used to mimic the bacterial membrane. Permeabilization of the liposomes would result in a release of the internal compound, thus reacting with the medium and producing a fluorescent light that can be measured by spectrometry. The test is carried out with both negative and positive controls. Alamethicin, which is an antibiotic known to create pores in the bacterial membrane, is used as the positive control. The negative control is a solution of liposomes, intended for measurement of background noise (FIG. 2).

[3] = test system: E. coli; assay: Permeabilization of bacterial membranes (SYTOX-Green); type: cell-based, Escherichia coli; details: Gram-negative E. coli, pH 7.4, measured 120 minutes after addition
Experimental: (§1) FIG. 3 presents the permeabilization of Gram-positive bacteria (Bacillus megaterium) and Gram-negative bacteria (Escherichia coli) after intended use of the Alvinellacine and two other AMPs (Cecropin originated from pork and Magainin originated from amphibian). These experiences were carried out at pH 7.4. The permeabilization of bacteria was measured 10 minutes after addition of each AMP for B. megaterium, while the same measurement was done after 120 minutes after addition of each AMP for E. coli.
(§2) The minimal inhibitory concentration (MIC) was determined according to the method of Hancock (Hancock, R. E. W. Sep. 19, 1999, posting date. [Online.] Hancock Laboratory Methods. Department of Microbiology and Immunology, University of British Columbia, British Columbia, Canada. [Antibiotics and Antimicrobial Peptides: MIC Determination by Microtitre Broth Dilution Method, last accessed September 21st.]). […]
(§3) To investigate the mode of action of Alvinellacine, we used the fluorescent dye SYTOX-Green® and either the Gram-positive Bacillus megaterium or the Gram-negative E. coli (FIG. 3). […] We also measured the pore-forming activity of Alvinellacine to further characterize its mode of action by using a minimalistic membrane system. More precisely, we monitored the dissipation of a membrane potential induced in liposomes composed of azolectin, a crude phospho lipid mixture from soy bean. […]

[4] = test system: Bacillus megaterium; assay: as above; type: cell-based; details: Gram-positive Bacillus megaterium, pH 7.4, measured 10 minutes after addition
Experimental: as §1, §2, §3

SMILES | final concentration at which pore-forming activity was detected [1] | permeabilization of liposomes (mechanism of antibacterial activity) [2] | membrane-permeabilizing activity compared with Cecropin P1 and Magainin II [3] | membrane-permeabilizing activity compared with the two positive controls (Cecropin P1, Magainin II) [4]
CC(=O)NC(C)(C)C(=O)N1CCC[C@H]1C(=O)NC(C)(C)C(=O)N[C@@H](C)C(=O)NC(C)(C)C(=O)N[C@@H](C)C(=O)N[C@@H](CCC(N)=O)C(=O)NC(C)(C)C(=O)N[C@H](C(=O)NC(C)(C)C(=O)NCC(=O)N[C@@H](CC(C)C)C(=O)NC(C)(C)C(=O)N1CCC[C@H]1C(=O)N[C@H](C(=O)NC(C)(C)C(=O)NC(C)(C)C(=O)N[C@@H](CCC(=O)O)C(=O)N[C@@H](CCC(N)=O)C(=O)N[C@H](CO)Cc1ccccc1)C(C)C)C(C)C [Alamethicine, Alamethicin, reference compound] (Ac-[Aib]P[Aib]A[Aib]AQ[Aib]V[Aib]GL[Aib]PV[Aib][Aib]EQ[Phe(ol)]) | 0.1 nM | – | – | –
CSCC[C@@H]1NC(=O)[C@@H]2CSSC[C@H](NC(=O)[C@H](CCCNC(=N)N)NC(=O)[C@H]([C@@H](C)O)NC(=O)[C@H](Cc3ccc(O)cc3)NC(=O)[C@@H](NC(=O)CNC(=O)[C@@H](N)CCCNC(=N)N)CSSC[C@@H](C(=O)N[C@H](C(=O)O)[C@@H](C)O)NC(=O)[C@H](C(C)C)NC(=O)[C@H](CCCNC(=N)N)NC1=O)C(=O)N[C@@H](Cc1c[nH]c3ccccc13)C(=O)N[C@@H](CCCCN)C(=O)N[C@@H](C(C)C)C(=O)NCC(=O)N[C@@H](CCCNC(=N)N)C(=O)N[C@@H](CC(N)=O)C(=O)NCC(=O)N[C@@H](CCCNC(=N)N)C(=O)N[C@@H](C(C)C)C(=O)N2 [Alvinellacine] (H-RGCYTRCWKVGRNGRVCMRVCT-OH; disulfide 3-21, 7-17 (inferred); N-terminus and C-terminus assumed) | up to 0.5 nM | permealibilizes the bi-layer of phospholipids | over one order of magnitude higher | lower activity
